Key:
MMP-9 = molecular target: T1, MMP-9 (Homo sapiens, UniProt P14780); assay: MMP-9 Colorimetric Drug Discovery Kit (Biomol): MMP activity reduction by dressings; assay type: biochemical; settings: compared to control samples with no MMP-9 inhibitor activity
T1 construct: purchased Biomol
Excerpt: A National Diagnostics Hydrogen Peroxide Assay Kit was used to evaluate the antioxidant properties of foam pads and the formulated coated foam pads containing alpha-lipoic acid. Foam pads coated only with gelatin were used as controls. FIG. 2 is a graph showing the percentage of hydrogen peroxide reduction due to reaction with alpha-lipoic acid. An MMP-9 Colorimetric Drug Discovery Kit (Biomol) was used to evaluate the MMP inhibiting/inactivating ability of the formulated foam pads containing alpha-lipoic acid/gelatin (ALA) and gelatin alone (GF GEL). The controls were uncoated foam pads and known potent MMP inactivating drug, NNGH (C13H20N2O5S, available from Enzo® Life Sciences). […] FIG. 4 is a graph showing the release of alpha-lipoic acid from the coating on the foam pads. The coating delivers approximately 70% of the total alpha-lipoic acid within the first day, while the remaining alpha-lipoic acid is released during the next 2-3 days.
Coated polyurethane foam (GranuFoam®) scaffolds described above in Examples 1-2 were further assayed for their ability to reduce MMP activity as compared to non-coated collagen based scaffold such as the Biostep™ and Promogran™ products.

[1] = Release of alpha-lipoic acid from the coating on foam pads; assay type: physicochemical; settings: coating on foam pads (FIG. 4)
Excerpt: Polyurethane open-cell reticulated foam pads were selected as the scaffold and were immersed in a solution containing 1.5 wt % of alpha-lipoic acid and 4.5 wt % 225-bloom beef gelatin (and, where applicable, 0.3% EDTA). Gelatin was used as a biocompatible binding agent with good oxygen barrier and sustained release properties for alpha-lipoic acid as well as for its ability to act as a sacrificial substrate for surrounding gelatinases. Alpha-lipoic acid was pre-dissolved in ethanol and then mixed into the final solution. The foam pads were immersed for a sufficient amount of time to coat the pathways formed within the open-cell reticulated foam as described above with respect to the scaffold. After immersion, the foam pads were withdrawn, compressed to remove excess solution, and dried to a constant weight. In some cases, sodium benzoate was added to the formulation as a preservative. Dried foams comprised, by weight, 2% alpha-lipoic acid, 6% gelatin and, where applicable, 0.4% EDTA.
A National Diagnostics Hydrogen Peroxide Assay Kit was used to evaluate the antioxidant properties of foam pads and the formulated coated foam pads containing alpha-lipoic acid. Foam pads coated only with gelatin were used as controls. FIG. 2 is a graph showing the percentage of hydrogen peroxide reduction due to reaction with alpha-lipoic acid. […]

T1 sequence (P14780 107-444 limits assumed): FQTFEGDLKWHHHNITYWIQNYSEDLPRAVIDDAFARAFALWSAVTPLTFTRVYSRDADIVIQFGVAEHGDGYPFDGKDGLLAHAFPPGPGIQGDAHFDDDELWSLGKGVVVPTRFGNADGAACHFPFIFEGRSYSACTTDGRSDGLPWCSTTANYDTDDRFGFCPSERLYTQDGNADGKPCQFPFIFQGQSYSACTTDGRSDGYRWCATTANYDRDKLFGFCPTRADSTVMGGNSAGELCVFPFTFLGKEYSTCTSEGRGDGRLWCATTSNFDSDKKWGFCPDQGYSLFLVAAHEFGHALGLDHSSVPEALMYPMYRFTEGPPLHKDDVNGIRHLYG

Row | SMILES | % MMP-9 activity reduction (MMP-9; Table 1 experiment) [%] | % MMP-9 activity reduction (MMP-9; Table 2 experiment) [%] | time over which the remaining alpha-lipoic acid is released ([1]; after the first day) [days] | share of the total alpha-lipoic acid delivered by the coating ([1]; within the first day)
1 | COc1ccc(S(=O)(=O)N(CC(=O)NO)CC(C)C)cc1 [NNGH] | 90.2 | 103.8 | – | –
2 | O=C(O)CCCCC1CCSS1 (stereo not drawn) [alpha-lipoic acid] | – | – | 2 to 3 | approximately 70%

Reference: patent publication US8597264B2, “Apparatuses, methods, and compositions for the treatment and prophylaxis of chronic wounds” (KCI Licensing, Inc., priority 2011, dated 2013)
